Assays:
[1] = Blood plasma chemistry analysis (plasma lipids); assay type: in vivo; conditions: tumor-bearing mice; PFM037 (0.4 µg/day); Fig. 5N
Procedure: Blood Plasma Chemistry Analysis. For all in vivo experiments mouse blood samples were collected via cardiac puncture and isolated plasma was analyzed by the COBAS c311 system (Roche) for plasma lipids.

[2] = tested on: RMA lymphoma; experiment: Treatment of RMA tumor-bearing mice; conditions: 300 µg i.v. 5 days/week
Procedure: Analysis of tumor infiltrating cells by flow cytometry. […] Tumors collected 7, 10, 12 or 14 days after injection were cut into small fragments and digested with Liberase TL (66 µg/ml, Roche) and DNAse I (150 µg/ml, Roche) for 25-30 minutes at 37 °C. Digested tissues were filtered by using a 75 µm diameter cell strainer. Single cell suspensions were stained with Live/Dead Violet kit reagents (Molecular Probes) for 30 minutes at 4°C. After washing, the cells were incubated for 5-10 minutes at RT with Fc-blocking solution (Anti-CD16/32, 10 µg/ml mouse Fc Block, BD) and then stained with various antibodies incubated at 4°C for 20 minutes. […] CD209a (5H10), CCR7 (4b12) and F4/80 (BM8) were from eBioscience. Rat IgG, Rat IgG2a, Rat IgG2b, Rat IgM and Hamster isotype control mAbs were used as controls (Biolegends and BD Biosciences). For intracellular staining, cells were incubated with PMA (100 ng/ml) and ionomycin (500 ng/ml) in the presence of 10 µg/ml of Brefeldin for 4 hours. Cells were then fixed using the IC Fixation buffer (eBioscience), permeabilized with 1x Permeabilization buffer (eBiosciences) and stained with anti-IFNy mAb. Samples were run by FACSCanto flow cytometer and analyzed by FlowJo software gating on live cells. FACS sorting was performed by using the FACSAria Fusion (BD)
Tumor challenge experiments. C57BL/6 mice were injected subcutaneously with LLC-Mock (1 ×10^6), LLC-SULT2B1b (1 ×10^6), RMA (2 ×10^5), or B16F1-OVA (2 ×10^5) tumor cells. […] Tumor size was evaluated by measuring perpendicular diameters by a caliper every 2-3 days. Data are reported as the average tumor volume ± SD. In selected experiments tumors were injected in Ccr2^-/-mice.
Treatment of tumor-bearing mice with LXR antagonists alone or with immunotherapy. Tumor-bearing mice were treated with 25-HC-3S or PFM037 6-7 days after tumor challenge. After 6-7 days, mice were randomly assigned to either treatment or vehicle groups. Mice were injected with 300 µg of either compound given i.v. for 5 days/week. […] B16F1-OVA-bearing mice were treated with 400 µg of PFM037 for 5 days/week. For controls of mAb experiments, mice were injected with 250 µg of rat IgG2a isotype control antibody. […] Tumors were collected and measured 14 days after tumor challenge.

[3] = tested on: melanoma B16F1-OVA; experiment: Treatment of B16F1-OVA-bearing mice; assay type: in vivo
Excerpt: Tumor challenge experiments.

[4] = tested on: IL-1β release; experiment: IL-1β release; conditions: at early times after PFM037 treatment
[5] = tested on: OT-I T cells; experiment: In vitro differentiation and expansion of activated OT-I T cells by IL-7/IL15; assay type: cell-based, mouse
Procedure: . Forty-eight hours later the cells were differentiated and expanded by IL-7/IL15 (5ng/ml both cytokines) with or without PFM037. Ten, 12 and 15 days later, FACS analysis was performed to evaluate their differentiation status. […]. Then, mice bearing MC-38-OVA-liver metastases were treated with vehicle, or OT-I T cells expanded with IL-2 (effectors), or IL-7/IL15 with or without PFM037. Tumor-bearing mice injected with vehicle were all dead 40 days after tumor injection. Twenty percent of tumor-bearing mice treated with OT-I T cells expanded with IL-2 were alive at 60 days, whereas 50% and 80% of tumor-bearing mice treated with IL-7/IL15 with or without PFM037, respectively, were alive at 60 days (Fig. 20). […].

[6] = tested on: B16F1 melanoma expressing OVA; experiment: Antitumor activity of expanded OT-I T cells in mice bearing B16F1 melanoma expressing OVA; assay type: in vivo; conditions: 7-day established tumors; vs OT-I expanded with IL-2 or IL-7/IL15 without PFM037
Procedure: To evaluate whether PFM037 induces functional and phenotypic changes of in vitro activated OT-T cells, OT-I T cells were activated in the presence of anti-CD3/CD28 coated beads and IL-2. Forty-eight hours later the cells were differentiated and expanded by IL-7/IL15 (5ng/ml both cytokines) with or without PFM037. Ten, 12 and 15 days later, FACS analysis was performed to evaluate their differentiation status. […] T cells expanded by IL7 and II,15 in the presence of PFM037 also expressed at higher levels the sternness markers Sca1, Tcf1 and CXCR3. […] First, OT-I T cells expanded with IL-2 (effectors) or IL-7/ILIS with or without PFM037 (memory T cells) were injected in mice bearing 7-day established B16F1 melanoma expressing OVA. […] Then, mice bearing MC-38-OVA-liver metastases were treated with vehicle, or OT-I T cells expanded with IL-2 (effectors), or IL-7/IL15 with or without PFM037. Tumor-bearing mice injected with vehicle were all dead 40 days after tumor injection. Twenty percent of tumor-bearing mice treated with OT-I T cells expanded with IL-2 were alive at 60 days, whereas 50% and 80% of tumor-bearing mice treated with IL-7/IL15 with or without PFM037, respectively, were alive at 60 days (Fig. 20). […]

[7] = tested on: LLC tumor cells; experiment: In vitro growth of LLC tumor cells; assay type: cell-based, mouse; conditions: compared with vehicle
[8] = tested on: LLC tumors; experiment: NMR lipidomic profiling of LLC tumors; conditions: PFM037-treated vs vehicle-treated LLC tumors
Procedure: Extraction of the lipidic and polar fractions from tumor tissues. […] They were resuspended in 170 µL of H2O and 700 µL of methanol and sonicated for 60 sec. Then, 350 µL of chloroform were added and mixed the samples on an orbital shaker in ice for 10 minutes. After that, 350 µL of H2O/chloroform (1:1, v/v) were added to each suspension and centrifuged at 4000 rpm for 10 minutes at 4°C. Thereafter, the aqueous (polar) and lipidic (non-polar) phases were collected separately, transferred to a glass vial and evaporated.
^1H NMR spectra acquisition and data analysis. All the lipidic and polar samples were analyzed using Nuclear Magnetic Resonance (NMR). The lipidic fractions were dissolved in 700 µL of deuterated chloroform (CDCl3) and 0.03 volume percentage of tetramethylsilane (TMS) and inserted in NMR tubes whereas the polar fractions were dissolved in 630 µL of PBS-D2O with the pH adjusted to 7.20, and 70 µL of trimethylsilylpropanoic acid (TSP) (1% in D2O). TMS and TSP were used as the internal standards. […] All ^1H NMR spectra were manually phased and baseline-corrected and referenced to the CH3 resonance of TSP or TMS at 0 ppm. The spectral 0.50-8.60 ppm region of ^1H-NMR spectra was integrated in buckets of 0.04 ppm by AMIX package (Bruker, Biospin, Germany). […]

[9] = tested on: MC38-GFP colon cancer cells; experiment: Liver metastasis model, intramesenteric injection of MC38-GFP cells; conditions: 400 µg, 3 days/week for 2 weeks; 21 days after tumor challenge; vs vehicle
Procedure: Macroscopic liver tumor quantification and Immunohistochemistry. At time of autopsy, visible macroscopic tumors were counted, and each liver macroscopically photographed. Livers were then perfused with PBS, harvested and different pieces were sampled, fixed in zinc-formalin and embedded in paraffin for hematoxylin/eosin or immunohistochemical analysis as described^62. Immunohistochemical staining was performed using a Bond RX Automated Immunohistochemistry system (Leica Microsystems GmbH, Wetzlar, Germany) on 3-µm-thick sections. First, tissues were deparaffinized and pre-treated with the Epitope Retrieval Solution [ER1 Citrate Buffer for GFP (dilution 1:500, GFP Polyclonal Antibody, Thermo Fisher Scientific, Cat# A11122, RRID:AB_221569). After washing steps, peroxidase blocking was carried out for 10 min using the Bond Polymer Refine Detection Kit DS9800 (Leica Microsystems GmbH). Then, tissues were washed and incubated for 1h RT with the primary antibody diluted in IHC Antibody Diluent (Novocastra, Leica RE7133). Subsequently, tissues were incubated with polymer-HRP (Biocare Medical, RT517H), developed with DAB-Chromogen for 10 minutes and counterstained with Hematoxilin for 5 minutes. For image acquisition and analysis eSlide Manager (Aperio Leica Biosystems) was used. All images were acquired using the Aperio AT2 system (Leica Biosystems). […]

[10] = OT-I T cells expanded by IL-7/IL15 with PFM037, FACS at 10, 12 and 15 days

CC(C)CC[C@H](O)[C@@H](C)[C@H]1CC[C@H]2[C@@H]3CC=C4C[C@@H](OS(=O)(=O)[O-])CC[C@]4(C)[C@H]3CC[C@]12C.[Na+] [PFM037, 22(S)-Hydroxycholesterol-3-sulfate sodium salt]
plasma HDL [1]: reduced levels
plasma LDL [1]: did not change
plasma not esterified fatty acids [1]: reduced levels
plasma total cholesterol [1]: reduced levels
plasma triglycerides [1]: reduced levels
numbers of tumor-infiltrating mono-DCs [2]: Higher
tumor growth ([2]; tumor weight at sacrifice): tumor growth control
antitumor activity, 400 µg compared with 300 µg [3]: much stronger
tumor growth ([3]; 400 µg 5 days/week): delayed the growth
IL-1β release [4]: no difference
CD39 and CD69 markers [5, 10]: progressively lost
CD62L and CD44low markers [5, 10]: progressively acquiring
stemness markers Sca1, Tcf1 and CXCR3 ([5]; T cells expanded by IL7 and IL15 in the presence of PFM037): higher levels
tumor growth control by OT-I T cells expanded with PFM037 [6]: significantly better
in vitro growth of LLC tumor cells [7]: grew in a similar manner
proton signals of ω-3 fatty acid docosahexaenoic acid and its derivatives [8]: lower levels
proton signals of ω-6 fatty acid arachidonic acid and its derivatives [8]: enriched
tumor area [9]: reduced
tumor nodules (macroscopic liver tumor lesions) [9]: much less

From patent EP4417616A1, “LXR ANTAGONISTS” (Ospedale San Raffaele S.r.l., priority 2023, dated 2024)
